According to patent publication US8187320B2, “Medical implants containing FK506 (tacrolimus)” (Abbott Laboratories Vascular Enterprises Limited, priority 2001, dated 2012):
Values joined by “and” are separate entries in the source; they are usually repeats but may differ in a detail not shown here. Equal entries are not always repeated. Marks after values point to notes of the source that are not given here.

Columns and labels:
[1] = system: smooth muscle cells (SMC); test: Inhibition of proliferation of smooth muscle cell (SMC) cultures; type: cell-based
[2] = system: neointima formation and foci of inflammation; test: Animal study: FK506-loaded ceramic-coated stents implanted into the carotid artery of rabbits; type: in vivo, New Zealand rabbits; details: ceramic-coated stents loaded with 60 μg of FK506; rabbit carotid artery; after 28 days
Experimental: Stainless steel coronary stents (JOSTENT Flex, 16 mm) were coated with an aluminum oxide ceramic layer. This coating served as carrier of FK506 (as described in Example 5). In this case, the stents were loaded with a total of 60 μg of FK506. In an animal study in rabbits (n=7), these FK506 coated stents and normal stents without coating were implanted into the carotid artery of New Zealand rabbits. The release of FK506 and the effect of FK506 on the growth of the intima and the formation of macrophages and lymphocytes was investigated.
The release of FK506 were determined by HPLC determination of the amount of FK506 in the blood of the rabbits after 1 hr, 8 hr, 24 hr and 48 hr. FIG. 6 is a graph showing the release of FK506 over time. The rabbits were sacrificed after 28 days, and the implanted stents were examined. The area of newly grown intima (neointima) within the stent was quantified under the optical microscope, and is reported in FIG. 7. There is a reduction of 53% in the formation of neointima for stents loaded with 60 μg of FK506 compared with bare stents. […] The use of stents with a ceramic coating onto which FK506 is applied thus leads to a distinct reduction in neointima and in foci of inflammation after the implantation.

[3] = Loading of selected active agents onto stent grafts / polyurethane-coated stents; type: physicochemical; details: type A: stent grafts with PTFE polymer layer immersed in solution of dissolved solids
Text: Loading of Selected Active Agents onto Stent Grafts All values are stated in μg.

[4] = Active agent release from stent grafts and polymer-coated stents in PBS buffer at 37° C.; type: physicochemical; details: type A PTFE stent graft, PBS 37° C.
Experimental: To analyze the active agent release, a stent was incubated at 37° C. in 10 ml of PBS buffer (stabilized with Na azide) at 37° C. After defined periods of time had elapsed, 2×1 ml of the solution were removed and analyzed. These 2 ml were replaced by fresh PBS buffer (stabilized with Na azide).
The tables reflect the total released content of active agent in the solution., ie., the amounts of active agent in the buffer volume removed for the analysis are accumulated with amounts detected in subsequent examples.

[5] = system: neointima formation; details: animal experiments; cited from earlier work
[6] = system: neointima formation; details: pigs; Heldman 2001; cited from earlier work
[7] = system: restenosis; details: in vivo; cited from earlier work

For C=CC[C@@H]1/C=C(\C)C[C@H](C)C[C@H](OC)[C@H]2O[C@@](O)(C(=O)C(=O)N3CCCC[C@H]3C(=O)O[C@H](/C(C)=C/[C@@H]3CC[C@@H](O)[C@H](OC)C3)[C@H](C)[C@@H](O)CC1=O)[C@H](C)C[C@@H]2OC (relative stereo) [FK 506, [3S-[3R* [E(1S*, 3S*, 4S*)], 4S*, 5R*,-8S*, 9E, 12R*, 14R*, 15S*, 16R*, 18S*, 19S*, 26aR*]]-5,6,8,11,12, 13, 14, 15, 16, 17, 18, 19, 24, 25, 25, 26, 26a-hexadecahydro-5,19-dihydroxy-3-[2-(4-hydroxy-3-methoxycyclohexyl)-1-methylethenyl]-14,16-dimethoxy-4,10,12,18-tetramethyl-8-(2-propenyl)-15,19-epoxy-3H-pyrido[2,1-c] [1,4]oxaazacyclotricosine-1,7-20,21(4H,23H)-tetrone], the “concentrations with inhibitory effect on SMC proliferation” value [1] was 300 to 500 nM and the “reduction in the formation of neointima compared with bare stents” value [2] was 53%.

For N.N.[Cl][Pt][Cl] [Cisplatin], the “amount of active agent loaded, Average” value [3] was 14 µg, the “amount of active agent loaded, single stent, measured by AAS” value ([3]; measured by AAS) was 15* μg and 14* μg and the “total released content after 24 hr, single determinations” value ([4]; Cisplatin) was 12.4 µg and 12.2 µg and 16.1 µg and 15.9 µg and 10.9 µg and 11.1 µg.

In the case of O=C1c2c(O)ccc(O)c2C(=O)c2c(NCCNCCO)ccc(NCCNCCO)c21 [Mitoxantrone], the “amount of active agent loaded, Average” value [3] is reported as 124 µg and the “amount of active agent loaded, single stent” value [3] is reported as 116 µg and 142 µg and 113 µg.

For CC(=O)O[C@H]1C(=O)[C@@]2(C)[C@H]([C@H](OC(=O)c3ccccc3)[C@]3(O)C[C@H](OC(=O)[C@H](O)[C@@H](NC(=O)c4ccccc4)c4ccccc4)C(C)=C1C3(C)C)[C@]1(OC(C)=O)CO[C@@H]1C[C@@H]2O [Paclitaxel], the “amount of active agent loaded, Average” value [3] was 144 µg, the “amount of active agent loaded, single stent” value [3] was 128 µg and 155 µg and 148 µg and the “total released content after 8 hr, single determinations” value ([4]; Paclitaxel, after 8 hr) was 1.16 and μg and 1.21 μg and 0.89 and 0.94 μg and 1.42 and 1.25 μg. For the same compound, the “total released content after 24 hr, single determinations” value ([4]; Paclitaxel) was 2.44 and μg and 2.40 μg and 2.26 and 2.27 μg and 1.65 and 1.42 μg, the “total released content after 96 hr, single determinations” value ([4]; Paclitaxel, after 96 hr) was 2.79 and μg and 2.78 μg and 2.82 and 2.82 μg and 1.42 and 1.93 μg and the “total released content after 192 hr, Average” value ([4]; Paclitaxel, after 192 hr) was 2.23 µg. The “total released content after 192 hr, single determinations” value ([4]; Paclitaxel, after 192 hr) was 2.22 µg and 2.24 µg, the neointima formation [5] was “inhibit neointima formation” and the “duration of beneficial effect of coated stents” value [6] was “beneficial effect has been observed to cease after 6 months”.

With CC[C@]1(O)C[C@@H]2CN(CCc3c([nH]c4ccccc34)[C@@](C(=O)OC)(c3cc4c(cc3OC)N(C)[C@H]3[C@@](O)(C(=O)OC)[C@H](OC(C)=O)[C@]5(CC)C=CCN6CC[C@]43[C@@H]65)C2)C1 [Vinblastine] the “total released content after 96 hr, Average” value ([4]; Vinblastine, after 96 hr) was 136 µg and the “total released content after 96 hr, single determinations” value ([4]; Vinblastine, after 96 hr) was 132 and μg and 140 μg.

In the case of CO[C@H]1C[C@@H]2CC[C@@H](C)[C@@](O)(O2)C(=O)C(=O)N2CCCC[C@H]2C(=O)O[C@H]([C@H](C)C[C@@H]2CC[C@@H](O)[C@H](OC)C2)CC(=O)[C@H](C)/C=C(\C)[C@@H](O)[C@@H](OC)C(=O)[C@H](C)C[C@H](C)/C=C/C=C/C=C/1C [rapamycin], the “healing of vessel wall injury caused by balloon angioplasty and stent implantation” value [7] is listed as “delays healing of vessel wall injury”.
